Experimental data taken from ChEMBL document CHEMBL1201862, “PubChem BioAssay data set” (2004).
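In this assay, cells in 96-well plates receive the compound at five concentrations for 48 hours. Endpoints are linearly interpolated between the surrounding concentrations. Here, GI50 denotes the concentration required for 50% inhibition of growth.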 The source made the active and inactive calls. No stated cut-off is given here; in the data, active = GI50 up to about 1.1 µM and inactive = higher.

What was measured:
Assay in all cases: inhibition of tumour cell growth, NCI panel, 48 h
DMS-273 = tested on: DMS-273
NCI-H460 = tested on: NCI-H460
NCI-H23 = tested on: NCI-H23
HT-29 = tested on: HT-29
OVCAR-4 = tested on: OVCAR-4
COLO 205 = tested on: COLO 205
UO-31 = tested on: UO-31
SNB-19 = tested on: SNB-19
LXFL 529 = tested on: LXFL 529
U-251 = tested on: U-251
SK-MEL-5 = tested on: SK-MEL-5
SF-295 = tested on: SF-295
SR = tested on: SR
Malme-3M = tested on: Malme-3M
EKVX = tested on: EKVX
SN12C = tested on: SN12C
A498 = tested on: A498
SK-OV-3 = tested on: SK-OV-3
HOP-62 = tested on: HOP-62
HOP-92 = tested on: HOP-92
M19-MEL = tested on: M19-MEL
CCRF-CEM = tested on: CCRF-CEM
OVCAR-5 = tested on: OVCAR-5
CAKI-1 = tested on: CAKI-1
SF-268 = tested on: SF-268
NCI-H522 = tested on: NCI-H522
DMS-114 = tested on: DMS-114
SW-620 = tested on: SW-620
UACC-62 = tested on: UACC-62
786-0 = tested on: 786-0
SF-539 = tested on: SF-539
A549 = tested on: A549
UACC-257 = tested on: UACC-257
ACHN = tested on: ACHN
SK-MEL-2 = tested on: SK-MEL-2
KM12 = tested on: KM12
RXF 393 = tested on: RXF 393
K562 = tested on: K562
NCI-H226 = tested on: NCI-H226
KM-20L2 = tested on: KM-20L2
SNB-78 = tested on: SNB-78
TK-10 = tested on: TK-10
MOLT-4 = tested on: MOLT-4
HL-60 = tested on: HL-60
SK-MEL-28 = tested on: SK-MEL-28
XF498 = tested on: XF498
RXF 631 = tested on: RXF 631
OVCAR-8 = tested on: OVCAR-8
LOX IMVI = tested on: LOX IMVI
DLD-1 = tested on: DLD-1
SNB-75 = tested on: SNB-75
M14 = tested on: M14
OVCAR-3 = tested on: OVCAR-3
IGROV-1 = tested on: IGROV-1
HCT-116 = tested on: HCT-116
HCC 2998 = tested on: HCC 2998

Measured: GI50

CN1CCC(O)C(CNC23CC4CC(CC(C4)C2)C3)C1 (stereo unspecified)
inactive: DMS-273 > 100 µM | NCI-H460 > 100 µM | NCI-H23 > 100 µM | HT-29 > 100 µM | OVCAR-4 > 100 µM | COLO 205 > 100 µM | UO-31 > 100 µM | SNB-19 > 100 µM | LXFL 529 > 100 µM | U-251 > 100 µM | SK-MEL-5 > 100 µM | SF-295 > 100 µM | SR > 100 µM | Malme-3M > 100 µM | EKVX > 100 µM | SN12C > 100 µM | A498 > 100 µM | SK-OV-3 > 100 µM | HOP-62 > 100 µM | HOP-92 85.1 µM | M19-MEL > 100 µM | CCRF-CEM > 100 µM | OVCAR-5 > 100 µM | CAKI-1 > 100 µM | SF-268 > 100 µM | NCI-H522 > 100 µM | DMS-114 > 100 µM | SW-620 > 100 µM | UACC-62 > 100 µM | 786-0 > 100 µM | SF-539 > 100 µM | A549 > 100 µM | UACC-257 > 100 µM | ACHN > 100 µM | SK-MEL-2 > 100 µM | KM12 > 100 µM | RXF 393 62.2 µM | K562 > 100 µM | NCI-H226 > 100 µM | KM-20L2 59 µM | SNB-78 > 100 µM | TK-10 > 100 µM | MOLT-4 > 100 µM | HL-60 > 100 µM | SK-MEL-28 > 10 µM | XF498 > 100 µM | RXF 631 > 100 µM | OVCAR-8 > 100 µM | LOX IMVI > 100 µM | DLD-1 > 100 µM

CCC(=O)C12OC3OC(C)(C)OC3C1OC(C)(C)O2 (stereo unspecified)
inactive: DMS-273 > 100 µM | SNB-75 > 100 µM | NCI-H460 > 100 µM | NCI-H23 > 100 µM | HT-29 > 100 µM | OVCAR-4 > 100 µM | UO-31 > 100 µM | SNB-19 > 100 µM | U-251 > 100 µM | SK-MEL-5 > 10 µM | SF-295 > 100 µM | SR > 100 µM | Malme-3M 9.44 µM | EKVX > 100 µM | SN12C > 100 µM | A498 > 100 µM | SK-OV-3 > 100 µM | HOP-62 > 100 µM | M14 > 100 µM | HOP-92 > 100 µM | M19-MEL > 100 µM | CCRF-CEM > 100 µM | OVCAR-5 > 100 µM | CAKI-1 > 100 µM | SF-268 > 100 µM | NCI-H522 > 100 µM | SW-620 > 100 µM | OVCAR-3 > 100 µM | UACC-62 > 100 µM | 786-0 > 100 µM | SF-539 > 100 µM | A549 > 100 µM | UACC-257 > 100 µM | IGROV-1 > 100 µM | ACHN > 100 µM | SK-MEL-2 > 100 µM | KM12 > 100 µM | RXF 393 > 100 µM | HCT-116 > 100 µM | HCC 2998 > 100 µM | K562 > 100 µM | NCI-H226 > 100 µM | SNB-78 > 100 µM | TK-10 > 100 µM | MOLT-4 > 100 µM | HL-60 > 100 µM | SK-MEL-28 > 100 µM | XF498 > 100 µM | RXF 631 > 100 µM | OVCAR-8 > 100 µM | DLD-1 > 100 µM
